Data from publication PMC5760531, “Action Potential Recording and Pro-arrhythmia Risk Analysis in Human Ventricular Trabeculae” (Frontiers in Physiology, 2018).

Tested on: human ventricular trabeculae
Experiment: Action potential recording and pro-arrhythmic score analysis in human ventricular trabeculae (hVT);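 also: sharp microelectrode action potential recordings at 37°C in Tyrode-perfused trabeculae, 4 cumulative concentrations each applied 31 min, values averaged over last 30 APs, vehicle 0.1% DMSO as control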
Conditions: for Refractoriness Escape (raw data) / Beat Escape (raw data) / EADs (raw data): n=4 trabeculae

Compound: Nc1nnc(-c2cccc(Cl)c2Cl)c(N)n1 [LAMOTRIGINE, Lamotrigine]
- Refractoriness Escape (raw data) (1Hz, 59-FOLD free ETPC (17µM)): 0
- AMAX (average raw data) (2Hz, 0.6-FOLD free ETPC (17µM)): 97
- AMAX percentage change compared to vehicle control (2Hz, 0.6-FOLD free ETPC (17µM)): -7%
- APD30 (average raw data) (2Hz, 0.6-FOLD free ETPC (17µM)): 107
- APD30 percentage change compared to vehicle control (2Hz, 0.6-FOLD free ETPC (17µM)): 2%
- APD50 (average raw data) (2Hz, 0.6-FOLD free ETPC (17µM)): 149
- APD50 percentage change compared to vehicle control (2Hz, 0.6-FOLD free ETPC (17µM)): 3%
- APD90 (average raw data) (2Hz, 0.6-FOLD free ETPC (17µM)): 232
- APD90 percentage change compared to vehicle control (2Hz, 0.6-FOLD free ETPC (17µM)): 2%
- Alternans (average raw data) (2Hz, 0.6-FOLD free ETPC (17µM)): 0.95
- Alternans percentage change compared to vehicle control (2Hz, 0.6-FOLD free ETPC (17µM)): -59%
- Beat Escape percentage change compared to vehicle control (2Hz, 0.6-FOLD free ETPC (17µM)): 0%
- EADs percentage change compared to vehicle control (2Hz, 0.6-FOLD free ETPC (17µM)): 0%
- ERP (average raw data) (2Hz, 0.6-FOLD free ETPC (17µM)): 0.46
- ERP percentage change compared to vehicle control (2Hz, 0.6-FOLD free ETPC (17µM)): 4%
- Max Dispersion (average raw data) (2Hz, 0.6-FOLD free ETPC (17µM)): 6.98
- Max Dispersion percentage change compared to vehicle control (2Hz, 0.6-FOLD free ETPC (17µM)): 7%
- RMP (average raw data) (2Hz, 0.6-FOLD free ETPC (17µM)): -82
- RMP percentage change compared to vehicle control (2Hz, 0.6-FOLD free ETPC (17µM)): -3%
- Refractoriness Escape percentage change compared to vehicle control (2Hz, 0.6-FOLD free ETPC (17µM)): 0%
- STV (average raw data) (2Hz, 0.6-FOLD free ETPC (17µM)): 0.58
- Triangulation (average raw data) (2Hz, 0.6-FOLD free ETPC (17µM)): 124
- Triangulation percentage change compared to vehicle control (2Hz, 0.6-FOLD free ETPC (17µM)): 2%
- Beat Escape (raw data) (2Hz, 0.6-FOLD free ETPC (17µM)): 0
- EADs (raw data) (2Hz, 0.6-FOLD free ETPC (17µM)): 0
- Refractoriness Escape (raw data) (2Hz, 0.6-FOLD free ETPC (17µM)): 0
- AMAX (average raw data) (2Hz, 6-FOLD free ETPC (17µM)): 103
- AMAX percentage change compared to vehicle control (2Hz, 6-FOLD free ETPC (17µM)): -2%
- APD30 (average raw data) (2Hz, 6-FOLD free ETPC (17µM)): 103
- APD30 percentage change compared to vehicle control (2Hz, 6-FOLD free ETPC (17µM)): -1%
- APD50 (average raw data) (2Hz, 6-FOLD free ETPC (17µM)): 139
- APD50 percentage change compared to vehicle control (2Hz, 6-FOLD free ETPC (17µM)): -3%
- APD90 (average raw data) (2Hz, 6-FOLD free ETPC (17µM)): 221
- APD90 percentage change compared to vehicle control (2Hz, 6-FOLD free ETPC (17µM)): -3%
- Alternans (average raw data) (2Hz, 6-FOLD free ETPC (17µM)): 4.34
- Alternans percentage change compared to vehicle control (2Hz, 6-FOLD free ETPC (17µM)): 90%
- Beat Escape percentage change compared to vehicle control (2Hz, 6-FOLD free ETPC (17µM)): 25%
- EADs percentage change compared to vehicle control (2Hz, 6-FOLD free ETPC (17µM)): 0%
- ERP (average raw data) (2Hz, 6-FOLD free ETPC (17µM)): 0.41
- ERP percentage change compared to vehicle control (2Hz, 6-FOLD free ETPC (17µM)): -7%
- Max Dispersion (average raw data) (2Hz, 6-FOLD free ETPC (17µM)): 10.50
- Max Dispersion percentage change compared to vehicle control (2Hz, 6-FOLD free ETPC (17µM)): 62%
- RMP (average raw data) (2Hz, 6-FOLD free ETPC (17µM)): -87
- RMP percentage change compared to vehicle control (2Hz, 6-FOLD free ETPC (17µM)): 3%
- Refractoriness Escape percentage change compared to vehicle control (2Hz, 6-FOLD free ETPC (17µM)): 0%
- STV (average raw data) (2Hz, 6-FOLD free ETPC (17µM)): 2.93
- Triangulation (average raw data) (2Hz, 6-FOLD free ETPC (17µM)): 117
- Triangulation percentage change compared to vehicle control (2Hz, 6-FOLD free ETPC (17µM)): -4%
- Beat Escape (raw data) (2Hz, 6-FOLD free ETPC (17µM)): 1
- EADs (raw data) (2Hz, 6-FOLD free ETPC (17µM)): 0
- Refractoriness Escape (raw data) (2Hz, 6-FOLD free ETPC (17µM)): 0
- AMAX (average raw data) (2Hz, 18-FOLD free ETPC (17µM)): 85
- AMAX percentage change compared to vehicle control (2Hz, 18-FOLD free ETPC (17µM)): -16%
- APD30 (average raw data) (2Hz, 18-FOLD free ETPC (17µM)): 110
- APD30 percentage change compared to vehicle control (2Hz, 18-FOLD free ETPC (17µM)): 4%
- APD50 (average raw data) (2Hz, 18-FOLD free ETPC (17µM)): 139
- APD50 percentage change compared to vehicle control (2Hz, 18-FOLD free ETPC (17µM)): -4%
- APD90 (average raw data) (2Hz, 18-FOLD free ETPC (17µM)): 227
- APD90 percentage change compared to vehicle control (2Hz, 18-FOLD free ETPC (17µM)): 2%
- Alternans (average raw data) (2Hz, 18-FOLD free ETPC (17µM)): 34.70
- Alternans percentage change compared to vehicle control (2Hz, 18-FOLD free ETPC (17µM)): 1417%
- Beat Escape percentage change compared to vehicle control (2Hz, 18-FOLD free ETPC (17µM)): 100%
- EADs percentage change compared to vehicle control (2Hz, 18-FOLD free ETPC (17µM)): 0%
- ERP (average raw data) (2Hz, 18-FOLD free ETPC (17µM)): 0.33
- ERP percentage change compared to vehicle control (2Hz, 18-FOLD free ETPC (17µM)): -25%
- Max Dispersion (average raw data) (2Hz, 18-FOLD free ETPC (17µM)): 42.23
- Max Dispersion percentage change compared to vehicle control (2Hz, 18-FOLD free ETPC (17µM)): 550%
- RMP (average raw data) (2Hz, 18-FOLD free ETPC (17µM)): -90
- RMP percentage change compared to vehicle control (2Hz, 18-FOLD free ETPC (17µM)): 10%
- Refractoriness Escape percentage change compared to vehicle control (2Hz, 18-FOLD free ETPC (17µM)): 0%
- STV (average raw data) (2Hz, 18-FOLD free ETPC (17µM)): 18.59
- Triangulation (average raw data) (2Hz, 18-FOLD free ETPC (17µM)): 117
- Triangulation percentage change compared to vehicle control (2Hz, 18-FOLD free ETPC (17µM)): -1%
- Beat Escape (raw data) (2Hz, 18-FOLD free ETPC (17µM)): 4
- EADs (raw data) (2Hz, 18-FOLD free ETPC (17µM)): 0
- Refractoriness Escape (raw data) (2Hz, 18-FOLD free ETPC (17µM)): 0
- AMAX (average raw data) (2Hz, 59-FOLD free ETPC (17µM)): 48
- AMAX percentage change compared to vehicle control (2Hz, 59-FOLD free ETPC (17µM)): -52%
- APD30 (average raw data) (2Hz, 59-FOLD free ETPC (17µM)): 106
- APD30 percentage change compared to vehicle control (2Hz, 59-FOLD free ETPC (17µM)): 4%
- APD50 (average raw data) (2Hz, 59-FOLD free ETPC (17µM)): 145
- APD50 percentage change compared to vehicle control (2Hz, 59-FOLD free ETPC (17µM)): 7%
- APD90 (average raw data) (2Hz, 59-FOLD free ETPC (17µM)): 268
- APD90 percentage change compared to vehicle control (2Hz, 59-FOLD free ETPC (17µM)): 34%
- Alternans (average raw data) (2Hz, 59-FOLD free ETPC (17µM)): 3.93
- Alternans percentage change compared to vehicle control (2Hz, 59-FOLD free ETPC (17µM)): 72%
- Beat Escape percentage change compared to vehicle control (2Hz, 59-FOLD free ETPC (17µM)): 100%
- EADs percentage change compared to vehicle control (2Hz, 59-FOLD free ETPC (17µM)): 0%
- ERP (average raw data) (2Hz, 59-FOLD free ETPC (17µM)): 0.41
- ERP percentage change compared to vehicle control (2Hz, 59-FOLD free ETPC (17µM)): -7%
- Max Dispersion (average raw data) (2Hz, 59-FOLD free ETPC (17µM)): 21.90
- Max Dispersion percentage change compared to vehicle control (2Hz, 59-FOLD free ETPC (17µM)): 237%
- RMP (average raw data) (2Hz, 59-FOLD free ETPC (17µM)): -74
- RMP percentage change compared to vehicle control (2Hz, 59-FOLD free ETPC (17µM)): -6%
- Refractoriness Escape percentage change compared to vehicle control (2Hz, 59-FOLD free ETPC (17µM)): 0%
- STV (average raw data) (2Hz, 59-FOLD free ETPC (17µM)): 2.81
- Triangulation (average raw data) (2Hz, 59-FOLD free ETPC (17µM)): 162
- Triangulation percentage change compared to vehicle control (2Hz, 59-FOLD free ETPC (17µM)): 64%
- Beat Escape (raw data) (2Hz, 59-FOLD free ETPC (17µM)): 4
- EADs (raw data) (2Hz, 59-FOLD free ETPC (17µM)): 0
- Refractoriness Escape (raw data) (2Hz, 59-FOLD free ETPC (17µM)): 0
- TdP identification by pro-arrhythmic score (at 10-fold human free ETPC, score >10 unsafe, <10 safe): TdP positive
- pro-arrhythmic score (at 100, 300, and 1,000 μM): above 40
- pro-arrhythmic score (at therapeutic exposure): below 10
